The text below walks through data of patent publication EP4696693A1, “HEXAHYDRO[1,4]OXAZINO[3,4-C]PYRIDO[2,1-F][1,2,4]TRIAZINE DEUTERATED DERIVATIVE, PHARMACEUTICAL COMPOSITION THEREOF, PREPARATION METHOD THEREFOR, AND ANTI-INFLUENZA USE THEREOF” (Changsha Jingyi Pharmaceutical Technology Co., Ltd, priority 2023, dated 2024).

Data set [1] can be described thus: In vitro cytotoxicity, Cell Counting Kit (CCK-8). Type of data set: cell-based, canine. The conditions noted are these: dog; MDCK cells, 48 h incubation, CCK-8, OD450nm; read-out: IC50 (cytotoxic effects on MDCK cells). Here is the method: The in vitro cytotoxic effects of the test compound (the compound of Formula I) and the positive control drugs (baloxavir marboxil, baloxavir, T-3 compound and T-4 compound) on Madin-Darby canine kidney (MDCK) cells were determined using a Cell Counting Kit (CCK-8). MDCK cells were seeded in 96-well plates and cultured overnight. After different concentrations of the drugs were added, the cells were incubated for 48 h. CCK-8 was then added, and the cells were incubated in the dark for […]. The optical density (OD) at 450 nm (OD450nm) values were measured using a microplate reader, and the half-maximal inhibitory concentration (IC50) of the drugs on the cells was calculated.
On the technique in general: Formazan colour is commonly taken as a measure of viable cells.

In data set [2] the test system is influenza A virus subtype H3N2 strain (A/California/2/2014). Description: Cytopathic effect (CPE) assay in MDCK cells, influenza A. Type of data set: cell-based. The conditions noted are these: for pEC50: Influenza A virus, H3N2, MDCK cells, 100 TCID50, CPE assay, CCK-8, read-out: EC50 against the influenza A virus subtype H3N2 strain (A/California/2/2014).
Data set [3] relates to influenza B virus strain (B/Florida/78/2015). Description: Cytopathic effect (CPE) assay in MDCK cells, influenza B. Type of data set: cell-based. The following applies: 100 TCID50, CPE assay, CCK-8, read-out: EC50 against the influenza B virus strain (B/Florida/78/2015). On the technique in general: Damage to the host cells serves as the signal in cytopathic effect assays.
In data set [4] the test system is H3N2 influenza A virus. Description: In vivo pharmacodynamics, influenza A virus infection model (lung index, lung viral load). The conditions noted are these: H3N2-infected BALB/c mice, x ± s, n = 10; for Lung index: 6 mg/kg oral gavage once daily; for PCR viral load: lung tissue, 6 mg/kg. Here is the method: (§1) In this example, the H3N2 influenza A virus and the IBV influenza B virus were used to intranasally infect BALB/c mice to establish an influenza A virus infection model and an influenza B virus infection model. After infection, the compound of Formula I was administered to the mice by oral gavage. Changes in lung index and lung viral load of the mice were observed. Oseltamivir phosphate granules, baloxavir marboxil, T-3 compound and T-4 compound were set as positive controls to evaluate the in vivo efficacy of the compound of Formula I against influenza viruses.
A total of 250 qualified SPF-grade BALB/c mice, weighing 11.9-15.1 g, half male and half female, were randomly divided into 7 groups based on genders and body weights: normal control group, model control group, oseltamivir phosphate granules group (6 mg/kg), baloxavir marboxil group (6 mg/kg), T-3 compound group (6 mg/kg), T-4 compound group (6 mg/kg) and Compound of Formula I group (6 mg/kg). The normal control group, oseltamivir phosphate granules group, baloxavir marboxil group, T-3 compound group (6 mg/kg) and T-4 compound group each included 30 mice, and the model control group and the Compound of Formula I group each included 50 mice. Two hours before the first administration, all mice were lightly anesthetized with ether. Except for the normal control group, all mice were intranasally inoculated with the stock solution of H3N2 influenza A virus (viral titer: 6 log2) at 100 µL per mouse. The normal control group was administrated with an equal volume of phosphate-buffered solution intranasally. Each group of mice was administered the corresponding concentration of the drug solution at 20 mL/kg, once daily for 5 consecutive days. The normal control group and the model control group were administered an equal volume of 0.5% methylcellulose (0.5% MC) by oral gavage. The body weights of the mice in each group were recorded daily. At 24 h and 48 h after administration, 10 mice (half male and half female) were randomly selected from each group and euthanized by cervical dislocation, and their lungs were dissected and weighed to calculate the lung index. The influenza A viral load in the lung tissue of the mice was detected using a real-time quantitative polymerase chain reaction (PCR) method. In the model control group and the Compound of Formula I group, 10 mice were euthanized at 12 h, 24 h, 48 h, 72 h, and 5 days after administration. The left lung was collected to assess the H3N2 influenza A viral load. […]

Data set [5] has as its system IBV influenza B virus. Briefly: In vivo pharmacodynamics, influenza B virus infection model (lung index, lung viral load). The arrangement: PCR relative quantification: unit not given here. The conditions noted are these: IBV-infected BALB/c mice, x ± s, n = 10; for Lung index: 6 mg/kg oral gavage once daily; for PCR relative quantification: lung tissue, dose printed 18 mg/kg. Here is the method: as §1
A total of 210 qualified SPF-grade BALB/c mice, weighing 13.0-15.4 g, half male and half female, were randomly divided into 7 groups based on genders and body weights: normal control group, model control group, oseltamivir phosphate granules group (6 mg/kg), baloxavir marboxil group (6 mg/kg), T-3 compound group (6 mg/kg), T-4 compound group (6 mg/kg) and Compound of Formula I group (6 mg/kg), 30 mice per group. Two hours before the first administration, all mice were lightly anesthetized with ether. Except for the normal control group, all mice were intranasally inoculated with the stock solution of IBV influenza B virus (viral titer: 8 log2) at 100 µL per mouse. The normal control group was administrated with an equal volume of phosphate-buffered solution intranasally. Each group of mice was administered the corresponding concentration of the drug solution at 20 mL/kg by oral gavage, once daily for 5 consecutive days. The normal control group and the model control group were administered an equal volume of 0.5% MC. The body weights of the mice in each group were recorded daily. At 24 h and 48 h after administration, 10 mice (half male and half female) were randomly selected from each group and euthanized by cervical dislocation, and their lungs were dissected and weighed to calculate the lung index. The influenza B viral load in the lung tissue of the mice was detected using a relative fluorescence quantitative PCR method. […]

The nature of data set [6]: Pharmacokinetics after oral gavage of MC suspension, plasma LC-MS/MS. The arrangement: species or system SD rats. The conditions noted are these: SD, rat, in vivo, 0.9 mg/kg. As for the experimental part:
This example investigated the pharmacokinetics profile of the compound of Formula I administered as a methylcellulose (MC) suspension by oral gavage in rats.
The drug concentration of baloxavir was determined using a validated LC-MS/MS analytical method. Plasma samples were precipitated with acetonitrile, and the supernatant was injected for analysis. A chromatographic column, Waters XBridge C8 2.5 µm 2.1×50 mm Column, was used, and a gradient elution was carried out using a mobile phase of 0.1% formic acid in water and acetonitrile (containing 0.1% formic acid), with a flow rate of 0.60 mL/min. Monitoring was carried out using an electrospray ionization (ESI) source in a positive ion mode with a multiple reaction monitoring (MRM) method. The linear range for baloxavir was 0.1000 to 100.0 ng/mL, with a lower limit of quantification of 0.1000 ng/mL; the linear range for baloxavir marboxil was 0.1000 to 5.000 ng/mL, with a lower limit of quantification of 0.1000 ng/mL; the linear range for the compound of Formula I was 0.1000 to 5.000 ng/mL, with a lower limit of quantification of 0.1000 ng/mL; the linear range for the T-3 compound was 0.1000 to 5.000 ng/mL, with a lower limit of quantification of 0.1000 ng/mL; and the linear range for the T-4 compound was 0.1000 to 5.000 ng/mL, with a lower limit of quantification of 0.1000 ng/mL.
This experiment used the marketed drug baloxavir marboxil and the analogous compounds T-3 and T-4 as references to investigate the differences in single-dose pharmacokinetics characteristics between the compound of Formula I and the above compounds. The dose groups were designed as follows: baloxavir marboxil group, with a medium dose (0.9 mg/kg, calculated as baloxavir), T-3 and T-4 compound groups, with a medium dose (0.9 mg/kg), and Compound of Formula I group, with a medium dose (0.9 mg/kg). Blood samples (approximately 0.2 mL) were collected via the orbital plexus before administration (0 h) and at 5 min, 15 min, 30 min, 1 h, 2 h, 4 h, 6 h, 8 h, 12 h, and 24 h after administration. Plasma was separated by centrifugation at 1700 g for 10 min, and plasma drug concentrations were determined by the LC-MS/MS method. Measured concentration values below 80% of the lower limit of quantification of the analyzed subject were considered not detected (counted as zero) or below the limit of quantification (counted as ND); values before the peak concentration Cmax were counted as zero, and values after the peak concentration were counted as ND. Pharmacokinetics parameters were calculated using Phoenix WinNonlin 8.0 software.
The main pharmacokinetics parameter experiment results are as follows: The primary pharmacokinetics parameters after the administration of different doses of a suspension of the compound of Formula I to SD rats by oral gavage are shown in Table 5 below.

pEC50: −log10 of the molar value.

With `[2H]C([2H])([2H])C([2H])([2H])OC(=O)OCOc1c2n(ccc1=O)N([C@@H]1c3ccccc3SCc3c1ccc(F)c3F)[C@@H]1COCCN1C2=O` [Compound of Formula I, [[(12aR)-12-[(11S)-7,8-difluoro-6,11-dihydrodibenzo[b,e]thiepin-11-yl]-6,8-dioxo-3,4,6,8,12,12 a-hexahydro-1H-[1,4]oxazino[3,4-c]pyrido[2,1-f][1,2,4]triazin-7-yl]oxy]methyl (ethyl-d5) carbonate], in data set [1], the IC50 (commonly the concentration needed to halve the response being measured) at 48 h worked out at 17.4 µM. Besides, the pEC50 in data set [2] is 8.30. The “protection against influenza virus-induced cell damage” value in data set [2] (concentration of 250 nM, influenza virus, strain not specified) is given as “significant protection”. Also, the pEC50 in data set [3] was 8.09. Also, in data set [4] (24 h after administration), the Lung index is listed as 8.67 ± 0.51^×× mg/g and the PCR viral load was 1308927 ± 1042821^×× copies. Also, in data set [4] (48 h after administration), the Lung index is recorded as 9.00 ± 0.57^× mg/g and the PCR viral load is 193017 ± 192655^×× copies. Also, in data set [5] (24 h after administration), the Lung index came to 12.01 ± 1.09 mg/g and the PCR relative quantification is 1416.57 ± 1122.12. Further, in data set [5] (48 h after administration), the Lung index was 9.79 ± 0.90^×× mg/g and the PCR relative quantification is reported as 1206.66 ± 1034.87. Further, in data set [6], the “AUC 0-t” value was 203.1047 ± 21.4237 (10.55%) ng·h/mL; the “AUC 0-∞” value is 207.7670 ± 25.0910 (12.08%) ng·h/mL; the Cmax is 31.7780 ± 2.4334 (7.66%) ng/mL; the Tmax is 1.0000 (0.500, 2.000) h.

Take `COC(=O)OCOc1c2n(ccc1=O)N([C@@H]1c3ccccc3SCc3c1ccc(F)c3F)[C@@H]1COCCN1C2=O` [baloxavir marboxil]: in data set [1], the 50% inhibitory concentration (IC50) at 48 h is 11.6 µM. Also, the pEC50 in data set [2] is 7.87. For the same compound, in data set [3], the pEC50 is 7.81. In addition, in data set [4] (24 h after administration), the Lung index was 9.53 ± 0.80 mg/g and the PCR viral load is 1919953 ± 784647^×× copies. Further, in data set [4] (48 h after administration), the Lung index stood at 9.11 ± 0.96 mg/g and the PCR viral load worked out at 320599 ± 202529 copies. For the same compound, in data set [5] (24 h after administration), the Lung index stood at 11.64 ± 1.06 mg/g. The Lung index in data set [5] (48 h after administration) is reported as 11.45 ± 0.66^× mg/g. Besides, in data set [6], the “AUC 0-t” value is 157.8227 ± 56.5111 (35.81%) ng·h/mL; the “AUC 0-∞” value is on record as 160.9111 ± 57.8613 (35.96%) ng·h/mL; the Cmax is listed as 23.1900 ± 7.9729 (34.38%) ng/mL; the Tmax is given as 1.0000 (0.250, 2.000) h.

For `O=C1c2c(O)c(=O)ccn2N([C@@H]2c3ccccc3SCc3c2ccc(F)c3F)[C@@H]2COCCN12` [baloxavir], in data set [1], the IC50 at 48 h worked out at 10.5 µM. Also, the pEC50 in data set [2] was 8.88; in data set [3] it was 8.69.
